This is an account of results in patent US20100093706A1, “MULTIMEDIATOR TRANSPORTER INHIBITORS FOR USE IN TREATMENT OF CENTRAL NERVOUS SYSTEM DISORDERS” (priority 2006, published 2010).

The IC50 is the concentration needed to halve the response being measured. Higher therefore signals weaker potency in that assay. What is called Vd is the apparent volume that relates the amount in the body to the concentration in plasma or blood. A low value points to confinement near the circulation. Broadly, the half-life is the time in which the quantity being followed falls by half. Higher therefore signals slow decline. As a reminder, the bioavailability is the share of a dose that reaches the circulation, judged against a reference dose that is usually intravenous. Read a high bioavailability as much systemic uptake. A word on the Kd: it is the concentration at which binding is half-saturated.

The target of data set [1] is dopamine D2 receptor (Homo sapiens, UniProt P14416). Description: in vitro selectivity panel, dopamine D2 receptor. The format is binding. On the procedure: (§1) The in vitro selectivity profile of two representative subject compounds, (3) and (1), are also tested against a panel of other receptors, including the M1 receptor, Histamine H1 receptor, sigma-1 (σ1) receptor, β1-adrenergic receptor, and dopamine D2 receptor. Representative results are listed below in Table III: […]
Sequence of dopamine D2 receptor (P14416 whole entry): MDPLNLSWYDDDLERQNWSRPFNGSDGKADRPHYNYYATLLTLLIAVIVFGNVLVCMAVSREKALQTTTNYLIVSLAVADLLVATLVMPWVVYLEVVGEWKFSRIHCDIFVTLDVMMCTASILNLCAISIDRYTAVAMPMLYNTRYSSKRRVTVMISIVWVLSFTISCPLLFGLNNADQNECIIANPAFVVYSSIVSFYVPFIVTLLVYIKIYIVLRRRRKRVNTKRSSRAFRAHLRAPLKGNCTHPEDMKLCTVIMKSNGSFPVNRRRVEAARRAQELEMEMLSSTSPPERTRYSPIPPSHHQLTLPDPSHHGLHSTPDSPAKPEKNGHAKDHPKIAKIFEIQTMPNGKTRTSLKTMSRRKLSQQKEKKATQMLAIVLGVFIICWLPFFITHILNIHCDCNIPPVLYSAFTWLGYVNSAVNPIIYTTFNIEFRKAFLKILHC

In data set [2] the target is Histamine H1 receptor (Homo sapiens, UniProt P35367). Briefly: in vitro selectivity panel, Histamine H1 receptor. In kind it is binding. On the procedure: as §1
Sequence of Histamine H1 receptor (P35367 whole entry): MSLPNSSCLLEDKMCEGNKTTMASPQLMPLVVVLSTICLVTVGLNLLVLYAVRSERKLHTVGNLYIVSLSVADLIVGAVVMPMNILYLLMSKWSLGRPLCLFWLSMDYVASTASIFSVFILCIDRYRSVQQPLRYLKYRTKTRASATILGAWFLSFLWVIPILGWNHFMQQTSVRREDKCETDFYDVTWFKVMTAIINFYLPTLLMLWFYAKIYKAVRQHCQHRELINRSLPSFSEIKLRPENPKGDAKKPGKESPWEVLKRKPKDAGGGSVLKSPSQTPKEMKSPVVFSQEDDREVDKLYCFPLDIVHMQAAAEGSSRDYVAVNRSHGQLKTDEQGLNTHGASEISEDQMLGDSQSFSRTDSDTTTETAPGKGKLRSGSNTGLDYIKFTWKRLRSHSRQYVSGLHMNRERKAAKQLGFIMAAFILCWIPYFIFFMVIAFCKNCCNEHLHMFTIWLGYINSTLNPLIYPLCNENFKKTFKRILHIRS
In data set [3] the target is 5-HT (Homo sapiens, UniProt P31645). Briefly: cell-based.
Sequence of 5-HT (P31645 whole entry): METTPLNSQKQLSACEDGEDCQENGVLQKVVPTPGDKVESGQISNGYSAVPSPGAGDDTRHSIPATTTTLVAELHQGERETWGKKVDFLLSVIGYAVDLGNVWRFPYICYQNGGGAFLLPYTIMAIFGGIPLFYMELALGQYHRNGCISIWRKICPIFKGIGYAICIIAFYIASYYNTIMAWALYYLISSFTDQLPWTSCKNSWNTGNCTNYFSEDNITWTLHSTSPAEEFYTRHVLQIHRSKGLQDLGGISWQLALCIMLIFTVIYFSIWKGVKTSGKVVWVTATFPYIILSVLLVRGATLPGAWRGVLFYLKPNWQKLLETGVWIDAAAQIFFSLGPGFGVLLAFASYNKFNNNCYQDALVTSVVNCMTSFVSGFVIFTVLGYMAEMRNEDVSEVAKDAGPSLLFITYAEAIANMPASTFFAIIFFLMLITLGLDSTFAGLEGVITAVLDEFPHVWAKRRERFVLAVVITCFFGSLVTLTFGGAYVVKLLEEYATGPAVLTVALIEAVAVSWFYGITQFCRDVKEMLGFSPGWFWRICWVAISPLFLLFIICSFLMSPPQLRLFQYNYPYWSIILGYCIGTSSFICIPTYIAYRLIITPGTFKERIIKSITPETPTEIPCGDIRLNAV
Data set [4] deals with NET (norepinephrine transporter or SLC6A2) (Homo sapiens, UniProt P23975). Description: cell-based.
Sequence of NET (norepinephrine transporter or SLC6A2) (P23975 whole entry): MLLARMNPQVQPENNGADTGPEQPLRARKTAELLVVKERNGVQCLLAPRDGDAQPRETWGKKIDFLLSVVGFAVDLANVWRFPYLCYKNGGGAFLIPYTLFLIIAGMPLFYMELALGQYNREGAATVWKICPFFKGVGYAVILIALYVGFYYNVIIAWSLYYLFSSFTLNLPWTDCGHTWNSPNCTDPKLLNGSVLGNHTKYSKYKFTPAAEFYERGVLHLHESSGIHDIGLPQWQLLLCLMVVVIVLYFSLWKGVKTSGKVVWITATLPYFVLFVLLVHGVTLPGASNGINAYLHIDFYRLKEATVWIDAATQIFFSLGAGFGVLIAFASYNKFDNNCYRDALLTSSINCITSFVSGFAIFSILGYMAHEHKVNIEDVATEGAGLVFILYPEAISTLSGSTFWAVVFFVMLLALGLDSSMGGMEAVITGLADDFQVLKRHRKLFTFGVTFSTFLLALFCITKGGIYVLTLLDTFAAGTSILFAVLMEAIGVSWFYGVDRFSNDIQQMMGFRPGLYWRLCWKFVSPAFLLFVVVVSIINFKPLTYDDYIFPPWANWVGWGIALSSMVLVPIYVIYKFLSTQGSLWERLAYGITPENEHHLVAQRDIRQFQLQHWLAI
The target of data set [5] is sigma-1 (σ1) receptor (Homo sapiens, UniProt Q99720). Briefly: in vitro selectivity panel, sigma-1 receptor. The format is binding. On the procedure:
as §1

Data set [6] addresses β1-adrenergic receptor (Homo sapiens, UniProt P08588). Description: in vitro selectivity panel, β1-adrenergic receptor. In kind it is binding. On the procedure:
as §1

A short description of data set [7]: in vivo. Conditions: rat.
In data set [8] the target is DAT (r) (Rattus norvegicus, UniProt P23977). Description: in vitro functional uptake, rat DAT. The format is cell-based.
Sequence of DAT (r) (P23977 whole entry): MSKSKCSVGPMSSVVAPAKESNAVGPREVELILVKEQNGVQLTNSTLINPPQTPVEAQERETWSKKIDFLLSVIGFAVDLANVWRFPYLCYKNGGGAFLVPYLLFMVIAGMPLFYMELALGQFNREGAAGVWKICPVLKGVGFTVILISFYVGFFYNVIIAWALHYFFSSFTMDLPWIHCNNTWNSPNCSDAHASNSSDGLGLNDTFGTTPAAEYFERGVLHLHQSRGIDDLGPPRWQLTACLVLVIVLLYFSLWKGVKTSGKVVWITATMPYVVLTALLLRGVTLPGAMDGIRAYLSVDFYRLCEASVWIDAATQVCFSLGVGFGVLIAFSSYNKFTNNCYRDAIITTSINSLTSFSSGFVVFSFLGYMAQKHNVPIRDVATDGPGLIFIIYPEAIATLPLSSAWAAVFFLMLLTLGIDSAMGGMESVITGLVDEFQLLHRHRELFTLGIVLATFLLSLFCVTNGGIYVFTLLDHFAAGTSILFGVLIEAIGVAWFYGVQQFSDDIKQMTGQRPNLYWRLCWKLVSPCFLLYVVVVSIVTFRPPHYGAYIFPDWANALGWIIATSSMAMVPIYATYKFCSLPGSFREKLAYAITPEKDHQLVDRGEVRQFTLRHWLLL
The target in data set [9] is T1, NET (h) (Homo sapiens, UniProt P23975).
T1 construct: expressed in transfected cells; host or cells: MDCK
T1 sequence (P23975 whole entry): as the sequence (P23975 whole entry) above
Description: cell-based. The format is cell-based. Conditions: read-out: NET (h) in vitro functional uptake. On the procedure: (§2) Functional activity of the compounds was determined in vitro in cellular assays using recombinant human cell lines.

The target in data set [10] is T2, 5-HT (h) (Homo sapiens, UniProt P31645).
T2 construct: expressed in transfected cells; host or cells: HEK-293
T2 sequence (P31645 whole entry): as the sequence (P31645 whole entry) above
Description: cell-based. The format is cell-based. Conditions: read-out: 5-HT (h) in vitro functional uptake. On the procedure: as §2

The target of data set [11] is T3, DAT (h) (Homo sapiens, UniProt Q01959).
T3 construct: expressed in transfected cells
T3 sequence (Q01959 whole entry): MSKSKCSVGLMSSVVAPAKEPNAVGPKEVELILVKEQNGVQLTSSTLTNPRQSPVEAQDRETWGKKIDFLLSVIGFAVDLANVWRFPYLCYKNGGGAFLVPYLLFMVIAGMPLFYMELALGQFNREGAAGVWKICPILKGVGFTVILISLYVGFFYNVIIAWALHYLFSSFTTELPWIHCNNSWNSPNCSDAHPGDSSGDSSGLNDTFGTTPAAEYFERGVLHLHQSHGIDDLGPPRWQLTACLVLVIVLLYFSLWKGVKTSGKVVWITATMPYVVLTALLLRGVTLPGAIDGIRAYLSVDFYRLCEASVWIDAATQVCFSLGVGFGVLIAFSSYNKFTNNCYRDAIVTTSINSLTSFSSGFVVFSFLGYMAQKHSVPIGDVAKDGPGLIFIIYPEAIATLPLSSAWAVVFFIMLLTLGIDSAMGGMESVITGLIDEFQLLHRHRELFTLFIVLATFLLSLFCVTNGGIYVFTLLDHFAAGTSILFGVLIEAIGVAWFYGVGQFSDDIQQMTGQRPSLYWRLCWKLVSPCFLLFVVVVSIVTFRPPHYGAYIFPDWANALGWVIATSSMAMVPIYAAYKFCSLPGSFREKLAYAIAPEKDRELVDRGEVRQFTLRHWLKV
Description: cell-based. The format is cell-based. On the procedure:
as §2

Data set [12] relates to rats. Briefly: forced swim test (behavioral despair assay) in rats. Conditions: rat, i.p., racemic mixtures of diastereomers. In kind it is in vivo. On the procedure: In vivo efficacy of several illustrative inhibitors of the instant invention, (1), (3), and (4), were measured using standard forced swim test model using rat. The objective of this study was to assess the antidepressant effects of test compounds in the behavioral despair assay in rats using a modification of a method described by Porsolt R. D. et al. in Behavioural despair in rats: a new model sensitive to antidepressant treatment, Eur. J. Pharmacol., 47: 379-391, 1978; Porsolt et al., Nature 266: 730-732, 1977; and Porsolt et al., in Psychopharmacology, Olivier, Mos, and Slangen (eds) Birkhäuser Verlag, Basel, pp. 137-159, 1991. Briefly, when mice (or rats) are forced to swim in a cylinder from which no escape is possible, they readily adopt a characteristic immobile posture and make no further attempts to escape except for small movements needed to keep floating. The immobility is considered by some to reflect a “depressive mood” (Porsolt et al., Nature 266: 730-732, 1977) in which animals cease to struggle to escape the aversive situation. The immobility induced by the procedure is influenced by a wide variety of antidepressants (Porsolt et al., in Psychopharmacology, Olivier, Mos, and Slangen (eds) Birkhauser Verlag, Basel, pp. 137-159, 1991) and has a good predictive validity in that it detects antidepressants with different mechanisms of action (TCAs, SSRIs, MAOIs, and other atypical ones). The test is sensitive to muscle-relaxant (benzodiazepines) and sedative (neuroleptics) effects, leading to enhanced immobility (Porsolt et al., supra).
In a typical experiment, animals are placed singly into a cylinder (e.g. 46×30 cm) containing fresh water at about 20° C. for 6 minutes. The activity (or immobility) of the animal is measured by an observer minute by minute. In more detail, the animals were preconditioned in a pretest session, where the rats were individually forced to swim inside a vertical plexiglass cylinder containing water maintained at 19-20° C. After 15 minutes in the water, they were allowed to dry for […] in a heated enclosure. Twenty-four hours later, the compounds were administered either intraperitoneally or orally to the animals. One hour after administration of the test compound, animals were put back into the cylinder containing water. The total duration of immobility was measured during the last 4 minutes of a 6 minute test.
The results are expressed as the percentage of variation of the total duration of immobility calculated from the mean value of the vehicle-treated group (% variation=[(immobility duration of vehicle−immobility duration of test compound)/(immobility duration of vehicle)]×100%).
In order to measure the in vivo efficacy of inhibiting DAT in rats using an inhibitor of the instant invention, one test inhibitor ((1), (3), or (4)) was injected i.p. as racemic mixtures of diastereomers into the animals, at various-doses (e.g. 7.5 and […]). Sibutramine (2.0 and 2.5 mg/kg), Bupropion (7.5 and 10 mg/kg), and Imipramine (30 mg/kg) were similarly administered as controls. […] Asterisks indicate highly statistical significant results.
A fourth inhibitor, (6) was administered p.o. as a racemic mixture of diastereomers at either 35 or 75 mg/kg. Sibutramine (5.0 and 3.75 mg/kg), Bupropion (30 and 40 mg/kg), and Imipramine (100 mg/kg) were similarly administered as controls.
Similarly, (1) was also administered p.o. as a racemic mixture of enriched (95:5) diastereomer at either 35 or 75 mg/kg. […]

Data set [13] has as its target T4, M1 receptor (Homo sapiens, UniProt P11229).
T4 sequence (P11229 1-460): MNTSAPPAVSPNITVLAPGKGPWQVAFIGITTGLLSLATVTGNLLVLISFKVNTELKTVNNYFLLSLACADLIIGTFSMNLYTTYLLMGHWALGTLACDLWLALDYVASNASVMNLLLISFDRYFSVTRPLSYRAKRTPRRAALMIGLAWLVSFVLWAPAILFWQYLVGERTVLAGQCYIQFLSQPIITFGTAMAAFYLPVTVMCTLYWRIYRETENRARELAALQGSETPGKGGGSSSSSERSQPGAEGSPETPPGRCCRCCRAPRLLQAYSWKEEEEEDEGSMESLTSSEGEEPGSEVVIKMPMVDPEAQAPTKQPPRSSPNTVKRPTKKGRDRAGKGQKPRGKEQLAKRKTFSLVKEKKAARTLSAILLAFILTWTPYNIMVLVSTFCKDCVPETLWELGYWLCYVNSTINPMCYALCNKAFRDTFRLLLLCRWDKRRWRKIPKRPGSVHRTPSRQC
Description: in vitro selectivity panel, M1 receptor. The format is binding. On the procedure: as §1

In data set [14] the target is T5, DAT (SLC6A3) (Homo sapiens, UniProt Q01959).
T5 construct: expressed in transfected cells
T5 sequence (Q01959 whole entry): as the sequence (Q01959 whole entry) above
Briefly: in vitro inhibition profile, IC50 of DAT (uptake assay). The settings on record: for fold selectivity of DAT against related receptors (NET, 5-HT): from Table II IC50. In kind it is cell-based. On the procedure:
Before the assay, cells expressing DAT are washed once with KRH and equilibrated for 5 min. The cells may be assayed in 24-well plates and incubated for 2-5 min. with tritiated amines. Nontransported inhibitors were preincubated for 5 min, and substrates were applied together with the tritiated substrate.
Experiments to determine the ionic requirements for DAT-mediated uptake are done in KRH buffer, substituting LiCl or choline Cl for NaCl (sodium-dependence) or substituting D-gluconates for NaCl and KCl, and Ca(NO3)2 for CaCl2 (chloride dependence). Cells are washed twice with sodium- or chloride-free KRH before the assay (each wash step at least 5 min). In all transport assays, incubation periods and substrate concentrations are chosen such that uptake obeyed first-order rate kinetics.
Vmax values for amine uptake in stable transfected DAT-cells are determined in parallel assays for at least two amines per experiment and expressed as relative values.

Data set [15] deals with T6, NET (Homo sapiens, UniProt P23975).
T6 construct: expressed in transfected cells; host or cells: MDCK
T6 sequence (P23975 whole entry): as the sequence (P23975 whole entry) above
The settings on record: human recombinant MDCK cells; historical value (MDS Pharma Services); read-out: KD of radioligand, NET assay; cited from earlier work.

In data set [16] the target is T7, DAT (Homo sapiens, UniProt Q01959).
T7 construct: expressed in transfected cells; host or cells: CHO-K1
T7 sequence (Q01959 whole entry): as the sequence (Q01959 whole entry) above
Conditions: human recombinant CHO-K1 cells; historical value (MDS Pharma Services); read-out: KD of radioligand, DAT assay; cited from earlier work.

Molecules are shown by their SMILES. Read-outs that look alike come from different tables or passages of the source.

Sequence of sigma-1 (σ1) receptor (Q99720 whole entry): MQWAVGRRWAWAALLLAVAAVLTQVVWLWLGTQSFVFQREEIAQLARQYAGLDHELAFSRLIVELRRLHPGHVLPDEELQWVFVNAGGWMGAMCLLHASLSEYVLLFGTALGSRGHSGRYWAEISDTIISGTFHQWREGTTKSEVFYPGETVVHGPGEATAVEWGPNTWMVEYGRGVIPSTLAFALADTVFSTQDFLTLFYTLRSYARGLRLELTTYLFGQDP
Sequence of β1-adrenergic receptor (P08588 whole entry): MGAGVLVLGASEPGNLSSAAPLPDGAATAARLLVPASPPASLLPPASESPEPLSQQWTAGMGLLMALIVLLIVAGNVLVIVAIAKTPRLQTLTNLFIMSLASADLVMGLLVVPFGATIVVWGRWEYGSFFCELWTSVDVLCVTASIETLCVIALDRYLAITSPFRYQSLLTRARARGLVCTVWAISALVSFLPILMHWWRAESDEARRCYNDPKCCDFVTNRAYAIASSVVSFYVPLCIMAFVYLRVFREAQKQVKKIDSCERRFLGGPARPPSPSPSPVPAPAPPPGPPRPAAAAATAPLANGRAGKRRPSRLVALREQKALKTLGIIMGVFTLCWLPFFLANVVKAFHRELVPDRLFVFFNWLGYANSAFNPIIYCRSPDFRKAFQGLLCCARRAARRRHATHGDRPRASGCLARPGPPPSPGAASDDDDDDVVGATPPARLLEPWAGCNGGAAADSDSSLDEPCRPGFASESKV

For `CC1CCC(COc2ccc(C(F)(F)F)cc2)CN1CC1(c2ccc(Cl)cc2)CCC1` (centres unmarked) [(3)], the “D2 (nM)h” value in data set [1] amounted to 1000 nM. In addition, in data set [2], the “Histamine H1 (nM)h” value turned out to be 5000 nM. Also, the IC50 worked out at 550 nM in data set [3], 150 nM in [4] and 1 nM in data set [14]. In addition, the “Sigma σ1 (nM)h” value in data set [5] was 5000 nM. Besides, the “β1-adrenergic (nM)h” value in [6] is recorded as 5000 nM. In [7], this compound registered a Vd of 10 L/kg. This compound came in with a half-life in [7] (iv) of 8.33 h. The compound further yielded a bioavailability in data set [7] (po) of 70%. The EC50 in data set [8] was determined as 50 nM; in [9], 200 nM; in [10] it was 825 nM; in data set [11] it was 1 nM. The “selectivity for DAT over 5-HT” value in [11] is 825 fold. The “selectivity for DAT over NET” value in data set [11] is reported as 200 fold. In data set [12], the “forced swim test efficacy versus commercial drugs (FIG. 1)” value is “performed equally well, if not better, than the commercial drugs Sibutramine, Bupropion, and Imipramine”. Also, the “M1 (nM)h” value in data set [13] came to 5000 nM. For the same compound, the “fold selectivity of DAT against related receptors (NET, 5-HT)” value in [14] is on record as 150-550 fold.

On to `CC1C(COc2ccc(C(F)(F)F)cc2)CCCN1CC1(c2ccc(Cl)cc2)CCC1` (centres unmarked) [(5)], for which the IC50 in [3] came out at 10000 nM. The compound further showed an IC50 in data set [4] of 870 nM. Besides, the EC50 in data set [8] (rat, unit inferred, read-out: DAT (r) in vitro functional uptake) worked out at 300 nM. For the same compound, in data set [11], the EC50 worked out at 5 nM, the “selectivity for DAT over 5-HT” value was found to be 1000 fold and the “selectivity for DAT over NET” value is recorded as 1000 fold. Further, in [14], 5 nM corresponded to half-maximal inhibition (IC50) and the “fold selectivity of DAT against related receptors (NET, 5-HT)” value is listed as 174-2,000 fold.

On to `COC(=O)[C@H]1[C@@H](c2ccc(I)cc2)C[C@@H]2CC[C@H]1N2C` [[^125I] RTI-55], for which the Kd in data set [15] was 24 nM; in [16] it was 0.58 nM.
